From patent US20260137706A1, “METHODS OF TREATING INFLAMMATORY DISEASES” (INTERLINE THERAPEUTICS, INC., priority 2023, published 2026)
Read-outs that look alike come from different tables or passages of the source.

How the values were obtained:
[1] = test system: NF-κB pathway (SEAP) in THP1-Dual cells; test: THP-1 Dual cell SEAP assay (L18-MDP stimulated); format: cell-based; conditions: Homo sapiens, THP1-Dual, read-out: NF-κB THP1 IC50 bin
Summary of the method: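 IC50 values derive from non-linear regression of % inhibition, calculated against DMSO/L18-MDP-treated wells after media-only subtraction. NF-κB SEAP activity was read at OD 620-655 nm (QUANTI-Blue, 2 h, 37 °C) from supernatants of THP1-Dual cells. Cells had been compound-treated 30 min before overnight (20-24 h) stimulation with 10 ng/mL final L18-MDP.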

[2] = target: T1, GST-RIPK2 fusion protein (human RIPK2, amino acids 1-310) (Homo sapiens, UniProt O43353); test: RIPK2 binding competition assay (TR-FRET, Tracer 199 displacement)
T1 construct: made in house; host or cells: baculovirus infected Sf9 cells
Summary of the method: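 IC50 derived from the TR-FRET emission ratio (665/620 nm, 337 nm excitation), normalized with no-inhibitor and no-enzyme controls. Incubation 45 min at 22 °C, pH 7.5 Tris buffer, with final 10 nM tracer, 1 nM Sf9-expressed GST-RIPK2 fragment (aa 1-310) and 0.5 nM Tb-labelled anti-GST.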

[3] = target: T2, binding of His-XIAP(BIR2)-avi fusion protein to GST-RIPK2 fusion protein (RIPK2/XIAP) (Homo sapiens, UniProt O43353); test: RIPK2-XIAP binding competition PPI assay (TR-FRET); conditions: for Emax: read-out: PPI Amax bin
T2 construct: made in house; host or cells: baculovirus infected Sf9 cells
Summary of the method: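 Compounds (in DMSO, 100-fold stock) incubated 120 min at 23 °C with 1 nM GST-RIPK2 (aa 1-310) and 25 nM His-XIAP(BIR2 aa 152-231)-avi, plus anti-His-XL665 and anti-GST-Tb, in pH 7.5 Tris buffer. Read-out: 665/520 nm emission ratio. Normalized to no-inhibitor (0%) and 50 nM GSK583 (−100%); Amax binned A–D.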

[4] = 10 nM Tracer 199, 1 nM GST-RIPK2, read-out: RIPK2 IC50
[5] = RIPK2/XIAP binding competition PPI assay, Amax
[6] = RIPK2/XIAP binding competition PPI assay, read-out: PPI IC50 bin

T1 sequence (O43353 1-310): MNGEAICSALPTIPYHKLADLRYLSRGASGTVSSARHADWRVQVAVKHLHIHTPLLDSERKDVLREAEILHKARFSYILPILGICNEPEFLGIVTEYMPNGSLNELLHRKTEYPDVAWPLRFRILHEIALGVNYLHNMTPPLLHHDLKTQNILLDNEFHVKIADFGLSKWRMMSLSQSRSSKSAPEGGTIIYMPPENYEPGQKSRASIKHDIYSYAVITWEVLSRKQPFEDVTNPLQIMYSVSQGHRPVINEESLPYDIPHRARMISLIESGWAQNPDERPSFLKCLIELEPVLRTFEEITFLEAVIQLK
T2 sequence (O43353 1-310 limits assumed): as the sequence (O43353 1-310) above

Structure (SMILES)	IC50 [1] [nM]	IC50 [2, 4] [nM]	Emax [3, 5] [%]	IC50 [3, 6] [nM]	IC50 ([2]; RIPK2 IC50 (nM), 10 nM Tracer 199, 1 nM GST-RIPK2) [nM]	IC50 ([3]; PPI IC50 bin, RIPK2/XIAP binding competition PPI assay) [nM]	Emax [3] [%]
COc1cc2ncc(-c3cn(C)c4ncccc34)n2cc1S(=O)(=O)C(C)(C)C [Example 99, 6-(tert-butylsulfonyl)-7-methoxy-3-(1-methyl-1H-pyrrolo[2,3-b]pyridin-3-yl)imidazo[1,2-a]pyridine]	> 1000	2.5 to 20	< 30	> 20	–	–	–
CC(C)(C)S(=O)(=O)c1cn2c(-c3cc(Cl)c(N)nc3F)cnc2cc1OCCO [Example 13, 2-((3-(6-amino-5-chloro-2-fluoropyridin-3-yl)-6-(tert-butylsulfonyl)imidazo[1,2-a]pyridin-7-yl)oxy)ethan-1-ol]	50 to 250	1 to 2.5	> 80	1 to 2.5	–	–	–
COc1cc2ncc(-c3cnn4c(C)c(C)ccc34)n2cc1S(=O)(=O)C(C)(C)C [Example 107, 6-(tert-butylsulfonyl)-3-(6,7-dimethylpyrazolo[1,5-a]pyridin-3-yl)-7-methoxyimidazo[1,2-a]pyridine]	> 1000	> 20	55 to 80	> 20	–	–	–
COc1cc2ncc(-c3cc(F)c(OC)c4[nH]c(CO)nc34)n2cc1S(=O)(=O)C(C)(C)C [Example 119, (4-(6-(tert-butylsulfonyl)-7-methoxyimidazo[1,2-a]pyridin-3-yl)-6-fluoro-7-methoxy-1H-benzo[d]imidazol-2-yl)methanol]	< 50	< 1	55 to 80	< 1	–	–	–
COc1cc2ncc(-c3cc(F)c(N)nc3F)n2cc1S(=O)(=O)C(C)(C)CN1CCN(C)CC1 [Example 166, 3,6-difluoro-5-(7-methoxy-6-((2-methyl-1-(4-methylpiperazin-1-yl)propan-2-yl)sulfonyl)imidazo[1,2-a]pyridin-3-yl)pyridin-2-amine]	> 1000	–	–	–	2.5 to 20	2.5 to 20	> 80
Cc1c[nH]c2ncc(-c3cnc4cc(OCCO)c(S(=O)(=O)C(C)(C)C)cn34)cc12 [Example 218, 2-((6-(tert-butylsulfonyl)-3-(3-methyl-1H-pyrrolo[2,3-b]pyridin-5-yl)imidazo[1,2-a]pyridin-7-yl)oxy)ethan-1-ol]	> 1000	2.5 to 20	55 to 80	2.5 to 20	–	–	–
CC(C)(C)S(=O)(=O)c1cn2c(-c3cnc4[nH]nnc4c3)cnc2cc1OCCO [Example 231, 2-((3-(3H-[1,2,3]triazolo[4,5-b]pyridin-6-yl)-6-(tert-butylsulfonyl)imidazo [1,2-a]pyridin-7-yl)oxy)ethan-1-ol]	> 1000	> 20	30 to 55	> 20	–	–	–
COc1cc2ncc(-c3cccc(NS(=O)(=O)C4CCC4)c3)n2cc1S(=O)(=O)C(C)(C)C [Example 152, N-(3-(6-(tert-butylsulfonyl)-7-methoxyimidazo[1,2-a]pyridin-3-yl)phenyl)cyclobutanesulfonamide]	250 to 1000	2.5 to 20	> 80	2.5 to 20	–	–	–
COc1cc2ncc(-c3cccc(NS(=O)(=O)C4(C)CC4)c3)n2cc1S(=O)(=O)C(C)(C)C [Example 149, N-(3-(6-(tert-butylsulfonyl)-7-methoxyimidazo[1,2-a]pyridin-3-yl)phenyl)-1-methylcyclopropane-1-sulfonamide]	> 1000	2.5 to 20	> 80	2.5 to 20	–	–	–
C[C@H](CO)COc1cn2ncc(-c3cc(F)c(N)nc3F)c2cc1S(=O)(=O)C(C)(C)C [Example 195, (R)-3-((3-(6-amino-2,5-difluoropyridin-3-yl)-5-(tert-butylsulfonyl)pyrazolo [1,5-a]pyridin-6-yl)oxy)-2-methylpropan-1-ol]	< 50	< 1	> 80	< 1	–	–	–
COc1cc2ncc(-c3cc(F)c(N)nc3F)n2cc1S(=O)(=O)C1(C)CCN(C(=O)OC(C)(C)C)CC1 [Example 70, tert-butyl 4-((3-(6-amino-2,5-difluoropyridin-3-yl)-7-methoxyimidazo[1,2-a]pyridin-6-yl)sulfonyl)-4-methylpiperidine-1-carboxylate]	> 1000	> 20	> 80	> 20	–	–	–
COc1cc2ncc(-c3cccc(NS(=O)(=O)C4COC4)c3)n2cc1S(=O)(=O)C(C)(C)C [Example 150, N-(3-(6-(tert-butylsulfonyl)-7-methoxyimidazo[1,2-a]pyridin-3-yl)phenyl)oxetane-3-sulfonamide]	> 1000	2.5 to 20	> 80	2.5 to 20	–	–	–
COc1cc2ncc(-c3ccc4cncn4c3)n2cc1S(=O)(=O)C(C)(C)C [Example 113, 6-(tert-butylsulfonyl)-3-(imidazo[1,5-a]pyridin-6-yl)-7-methoxyimidazo[1,2-a]pyridine]	> 1000	> 20	< 30	> 20	–	–	–
CC(C)(C)S(=O)(=O)c1cn2c(-c3ccc(N)nc3F)cnc2cc1OCCO [Example 249, 2-((3-(6-amino-2-fluoropyridin-3-yl)-6-(tert-butylsulfonyl)imidazo [1,2-a]pyridin-7-yl)oxy)ethan-1-ol]	> 1000	> 20	> 80	> 20	–	–	–
COc1cc2ncc(-c3ccc4c(c3)OCC4O)n2cc1S(=O)(=O)C(C)(C)C (stereo not drawn) [Example 86, 6-(6-(tert-butylsulfonyl)-7-methoxyimidazo[1,2-a]pyridin-3-yl)-2,3-dihydrobenzofuran-3-ol]	> 1000	> 20	< 30	> 20	–	–	–
COc1cc2ncc(-c3cccc(NS(=O)(=O)C4CCNC4)c3)n2cc1S(=O)(=O)C(C)(C)C (stereo not drawn) [Example 154, N-(3-(6-(tert-butylsulfonyl)-7-methoxyimidazo[1,2-a]pyridin-3-yl)phenyl)pyrrolidine-3-sulfonamide]	> 1000	2.5 to 20	> 80	2.5 to 20	–	–	–
CCS(=O)(=O)c1cn2c(-c3cc(F)c(OC)c(NS(=O)(=O)c4cnn(C)c4)c3)cnc2cc1OC [Example 242, N-(5-(6-(ethylsulfonyl)-7-methoxyimidazo[1,2-a]pyridin-3-yl)-3-fluoro-2-methoxyphenyl)-1-methyl-1H-pyrazole-4-sulfonamide]	50 to 250	< 1	> 80	< 1	–	–	–
COc1cc2ncc(-c3ccc4c(N)nccc4c3)n2cc1S(=O)(=O)C(C)(C)C [Example 90, 6-(6-(tert-butylsulfonyl)-7-methoxyimidazo[1,2-a]pyridin-3-yl)isoquinolin-1-amine]	250 to 1000	2.5 to 20	< 30	> 20	–	–	–
C[C@H](O)CCOc1cc2ncc(-c3cc(F)c(N)nc3F)n2cc1S(=O)(=O)C(C)(C)C [Example 34, (S)-4-((3-(6-amino-2,5-difluoropyridin-3-yl)-6-(tert-butylsulfonyl)imidazo[1,2-a]pyridin-7-yl)oxy)butan-2-ol]	250 to 1000	2.5 to 20	> 80	2.5 to 20	–	–	–
Nc1cc(-c2cnc3ccc(C(F)(F)F)cn23)cc(F)n1 [Example 4, 6-fluoro-4-(6-(trifluoromethyl)imidazo[1,2-a]pyridin-3-yl)pyridin-2-amine]	250 to 1000	> 20	< 30	> 20	–	–	–
COc1cn2ncc(-c3cc(F)c(OC)c(NS(=O)(=O)C4(CO)CC4)c3)c2cc1S(=O)(=O)C(C)(C)C [Example 181, N-(5-(5-(tert-butylsulfonyl)-6-methoxypyrazolo[1,5-a]pyridin-3-yl)-3-fluoro-2-methoxyphenyl)-1-(hydroxymethyl)cyclopropane-1-sulfonamide]	< 50	< 1	> 80	< 1	–	–	–
COc1cc2ncc(-c3ccc4ncoc4c3)n2cc1S(=O)(=O)C(C)(C)C [Example 110, 6-(6-(tert-butylsulfonyl)-7-methoxyimidazo[1,2-a]pyridin-3-yl)benzo[d]oxazole]	> 1000	> 20	< 30	> 20	–	–	–
CC(C)(C)S(=O)(=O)c1cn2c(-c3cnc4ccnn4c3)cnc2cc1OCCO [Example 221, 2-((6-(tert-butylsulfonyl)-3-(pyrazolo[1,5-a]pyrimidin-6-yl)imidazo[1,2-a]pyridin-7-yl)oxy)ethan-1-ol]	> 1000	> 20	> 80	> 20	–	–	–
CC(C)(C)S(=O)(=O)c1cn2c(-c3cc(F)c(N)nc3F)cnc2cc1OCC(F)(F)CO [Example 54, 3-((3-(6-amino-2,5-difluoropyridin-3-yl)-6-(tert-butylsulfonyl)imidazo[1,2-a]pyridin-7-yl)oxy)-2,2-difluoropropan-1-ol]	50 to 250	1 to 2.5	> 80	2.5 to 20	–	–	–
